# Key:
# human PR-B = molecular target: T1, human PR-B (Homo sapiens, UniProt P06401); experiment: Co-transfection assay, PR agonist and antagonist activity, CV-1 cells; format: cell-based;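 note: luciferase reporter driven by a hormone response element, co-transfected with human PR-B into CV-1 monkey kidney cells, agonists raise and antagonists lower the reporter signal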
# T1 construct: expressed in transfected cells; host or cells: CV-1 cells (African green monkey kidney fibroblasts), transient transfection
# T1 sequence (P06401 1-933): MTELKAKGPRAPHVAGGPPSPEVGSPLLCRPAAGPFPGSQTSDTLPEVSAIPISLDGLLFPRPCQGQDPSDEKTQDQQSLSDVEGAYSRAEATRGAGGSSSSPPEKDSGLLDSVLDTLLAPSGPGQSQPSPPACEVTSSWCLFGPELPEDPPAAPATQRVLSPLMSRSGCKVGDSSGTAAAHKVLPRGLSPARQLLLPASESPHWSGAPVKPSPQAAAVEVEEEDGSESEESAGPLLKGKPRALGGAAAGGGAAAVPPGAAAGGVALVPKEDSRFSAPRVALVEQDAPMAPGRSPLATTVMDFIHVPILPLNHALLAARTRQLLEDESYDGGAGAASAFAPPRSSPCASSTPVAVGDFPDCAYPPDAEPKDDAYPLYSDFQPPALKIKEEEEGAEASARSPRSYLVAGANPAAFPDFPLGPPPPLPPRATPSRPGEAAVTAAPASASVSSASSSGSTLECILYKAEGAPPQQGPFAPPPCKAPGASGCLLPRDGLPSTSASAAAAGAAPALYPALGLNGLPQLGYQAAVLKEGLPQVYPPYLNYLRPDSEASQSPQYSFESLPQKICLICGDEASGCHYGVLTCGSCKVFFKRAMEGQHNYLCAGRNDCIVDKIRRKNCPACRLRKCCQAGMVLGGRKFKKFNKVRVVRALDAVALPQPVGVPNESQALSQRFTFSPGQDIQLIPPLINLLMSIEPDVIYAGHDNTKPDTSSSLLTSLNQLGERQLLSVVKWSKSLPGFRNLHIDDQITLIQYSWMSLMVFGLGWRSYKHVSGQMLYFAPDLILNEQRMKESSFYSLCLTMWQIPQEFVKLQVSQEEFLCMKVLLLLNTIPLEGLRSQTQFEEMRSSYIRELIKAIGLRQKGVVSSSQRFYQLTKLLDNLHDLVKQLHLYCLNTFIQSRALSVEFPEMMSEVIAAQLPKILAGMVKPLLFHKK
# [1] = tested on: pregnancy (implantation sites) in female mice (ICR strain); experiment: Implantation assay (antiprogestin activity); format: in vivo, mouse; conditions: R5020 1.0 mg per day
# Method: Mating was assumed to have taken place at 02.00 h, time 0.
# Compound 150 was dissolved in sesame oil (50 mg/mL) and kept at room temperature before use. […] Control animals received an equivuivalent volume of the control vehicle, sesame oil, alone.
# The animals were sacrificed, and autopsies were carried out at Day 8 of pregnancy, and numbers of implantation sites counted and recorded, and are shown in Table 7 below. Each group consisted of between 5 and 7 animals.
# PR, AR, ER, GR and MR = experiment: cis-trans or co-transfection assay, steroid receptor panel (cross-reactivity); format: cell-based, human; conditions: as seen in the Tables
# [2] = molecular target: T2, human progesterone receptor A form (PR-A) (Homo sapiens, UniProt P06401); experiment: PR binding assay, baculovirus extract, [3H] progesterone; conditions: read-out: PR Binding Ki
# T2 sequence (P06401 1-769 isoform P06401-2): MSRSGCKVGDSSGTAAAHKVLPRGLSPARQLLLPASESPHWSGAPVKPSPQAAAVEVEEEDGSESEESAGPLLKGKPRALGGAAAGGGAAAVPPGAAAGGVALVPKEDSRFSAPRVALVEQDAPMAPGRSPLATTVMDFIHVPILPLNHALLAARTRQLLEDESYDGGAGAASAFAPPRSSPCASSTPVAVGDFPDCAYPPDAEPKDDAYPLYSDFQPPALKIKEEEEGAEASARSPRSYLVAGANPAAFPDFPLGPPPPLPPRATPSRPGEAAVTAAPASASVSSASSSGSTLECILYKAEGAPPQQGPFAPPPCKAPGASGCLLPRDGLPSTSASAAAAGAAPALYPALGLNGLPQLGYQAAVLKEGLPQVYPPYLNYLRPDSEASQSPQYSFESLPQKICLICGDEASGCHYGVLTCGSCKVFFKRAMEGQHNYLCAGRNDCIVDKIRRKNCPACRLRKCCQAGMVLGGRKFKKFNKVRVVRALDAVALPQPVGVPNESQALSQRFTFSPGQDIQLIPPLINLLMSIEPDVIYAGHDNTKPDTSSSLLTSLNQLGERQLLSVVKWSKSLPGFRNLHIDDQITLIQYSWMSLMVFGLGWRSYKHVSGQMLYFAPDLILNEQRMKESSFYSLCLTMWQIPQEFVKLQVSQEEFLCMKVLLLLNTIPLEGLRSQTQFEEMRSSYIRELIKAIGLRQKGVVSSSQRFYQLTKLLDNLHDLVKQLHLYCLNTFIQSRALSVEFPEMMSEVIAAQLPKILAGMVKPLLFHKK
smiles,measurement,setting,value
"CC1=CC(C)(C)Nc2ccc(-c3cccc(C#N)c3)cc21 [Compound 150, 6-(3-Cyanophenyl)-1,2-dihydro-2,2,4-trimethylquinoline]",EC50,"human PR-B; agonist mode, EC50, read-out: PR Agonist CV-1 Cells Potency",3200 nM
same,IC50,human PR-B; read-out: PR Antagonist CV-1 Cells Potency,24 nM
same,effect on pregnancy rate with simultaneous injection of PR agonist R5020,[1],reversed to the control level
same,steroid receptor selectivity profile,"PR, AR, ER, GR and MR",highly selective PR antagonists
same,Ki,[2],17 nM

# — patent US6448405B1, “Steroid receptor modulator compounds and methods” (Ligand Pharmaceuticals Incorporated, priority 1994, dated 2002)
